IC50 data for 62 molecules are collected here from the Kinase Knowledgebase extract (Sharma et al. 2016).

Experiment [1] concerns the target EGFR (UniProt P00533).
In experiment [2] the target is EGFR (murine) (UniProt P00533). Particulars: nih3t3.

SMILES strings stand for the structures.

Sequence of EGFR (P00533 whole entry, looked up): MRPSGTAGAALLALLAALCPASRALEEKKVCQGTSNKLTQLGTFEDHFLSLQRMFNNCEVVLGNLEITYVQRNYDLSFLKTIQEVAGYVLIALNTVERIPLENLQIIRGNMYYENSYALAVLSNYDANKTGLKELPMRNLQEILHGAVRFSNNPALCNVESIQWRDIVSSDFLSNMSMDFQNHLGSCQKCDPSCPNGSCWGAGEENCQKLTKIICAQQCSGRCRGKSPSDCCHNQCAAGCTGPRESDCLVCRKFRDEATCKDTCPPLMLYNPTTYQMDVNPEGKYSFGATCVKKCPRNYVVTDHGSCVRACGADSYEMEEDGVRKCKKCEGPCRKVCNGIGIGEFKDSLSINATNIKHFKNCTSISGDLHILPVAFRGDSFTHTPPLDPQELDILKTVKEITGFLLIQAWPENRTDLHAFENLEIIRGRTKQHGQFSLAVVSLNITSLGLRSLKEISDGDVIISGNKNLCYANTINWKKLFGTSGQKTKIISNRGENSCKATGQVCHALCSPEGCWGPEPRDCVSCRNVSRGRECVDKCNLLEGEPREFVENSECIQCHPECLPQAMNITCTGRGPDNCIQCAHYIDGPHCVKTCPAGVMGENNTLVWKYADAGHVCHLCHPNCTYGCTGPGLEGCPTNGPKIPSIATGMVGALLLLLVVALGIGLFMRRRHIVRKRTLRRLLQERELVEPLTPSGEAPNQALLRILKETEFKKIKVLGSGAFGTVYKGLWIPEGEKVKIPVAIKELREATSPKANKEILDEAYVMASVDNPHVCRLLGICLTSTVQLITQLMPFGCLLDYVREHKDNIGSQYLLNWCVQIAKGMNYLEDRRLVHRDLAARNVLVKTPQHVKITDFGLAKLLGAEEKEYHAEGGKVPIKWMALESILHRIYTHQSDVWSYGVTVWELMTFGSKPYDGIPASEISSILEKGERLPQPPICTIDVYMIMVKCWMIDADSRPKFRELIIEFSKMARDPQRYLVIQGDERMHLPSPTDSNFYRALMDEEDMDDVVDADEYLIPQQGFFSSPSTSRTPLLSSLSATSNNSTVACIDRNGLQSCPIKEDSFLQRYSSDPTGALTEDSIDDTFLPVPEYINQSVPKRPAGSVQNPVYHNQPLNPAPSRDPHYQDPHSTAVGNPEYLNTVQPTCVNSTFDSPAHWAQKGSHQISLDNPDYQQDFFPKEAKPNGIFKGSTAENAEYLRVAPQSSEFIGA
Sequence of EGFR (murine) (P00533 whole entry, looked up): as above

In turn, `O=C1Nc2cc(-c3cccs3)ccc2/C1=C\c1ccccc1O` came in with a concentration for half-maximal inhibition (IC50) in experiment [1] above 100 µM.
Turning to `CC(C)(C)c1cc(CC2C(=O)Nc3ccc(Cl)cc32)cc(Br)c1O` (configuration not stated), the concentration for half-maximal inhibition (IC50) in experiment [1] was above 100 µM.
In experiment [1], `O=C(Nc1ccc2c(c1)NC(=O)C2Cc1cc(Cl)ccc1O)C1CCCC1` (configuration not stated) returned an IC50 above 100 µM.
The same measure, in the same setting: the figure for `COCCc1cccc2c1CC(=O)N2` is above 100 µM; for `O=C1Cc2c(CCOC(=O)NC3CCCCC3)cccc2N1` it is above 100 µM; for `O=C1Cc2c(CCOC(=S)Nc3ccccc3)cccc2N1` it is above 100 µM.
For the molecule `COc1ccc(CC2C(=O)Nc3cc(NC(C)=O)ccc32)cc1-c1cccs1` (configuration not stated), the values for the IC50 in experiment [1] and in experiment [2] were above 100 µM and above 50 µM, respectively.
`O=C1Cc2c(CCOc3cncc(Cl)c3)cccc2N1` came in with an IC50 in experiment [1] above 100 µM.
Same read-out and setting: for `COc1cc(C)c(CC2C(=O)Nc3ccccc32)cc1C(C)C` (configuration not stated) the value was above 100 µM; for `O=C(Nc1ccc2c(c1)NC(=O)C2Cc1cc(Cl)cc(Cl)c1O)C1CCCC1` (configuration not stated), above 100 µM; for `O=C1Nc2cccc(CCO)c2/C1=C/c1ccc2[nH]ccc2c1`, above 100 µM.
Still for that read-out and setting: the figure for `O=C1Cc2c(CCOC(=O)Nc3ccccc3-c3ccccc3)cccc2N1` is above 100 µM; for `CC(C)NC(=O)OCCc1cccc2c1CC(=O)N2` it is above 100 µM; for `CCNC(=O)OCCc1cccc2c1CC(=O)N2` it is above 100 µM.
On the same count and under the same terms, the figure for `Cc1[nH]c(CC2C(=O)Nc3ccc(Cl)cc32)c(C)c1CCCN(C)C` (configuration not stated) is above 100 µM.
Turning to `Cc1cccc2c1C(Cc1ccc3[nH]ccc3c1)C(=O)N2` (configuration not stated), the concentration for half-maximal inhibition (IC50) in experiment [1] is above 100 µM; in experiment [2] it was above 50 µM.
For the molecule `COc1ccc(OCCc2cccc3c2CC(=O)N3)cc1`, the IC50 in experiment [1] is above 100 µM.
Same read-out and setting: for `CC(C)c1ccccc1OCCc1cccc2c1CC(=O)N2` the value was above 100 µM; for `CC(C)c1ccc(OCCc2cccc3c2CC(=O)N3)cc1`, above 100 µM.
`COc1ccccc1-c1ccc2c(c1)NC(=O)C2Cc1[nH]c(C)c(CCCN(C)C)c1C` (configuration not stated): in experiment [1], the half-maximal inhibitory concentration (IC50) is above 100 µM.
Molecule `Cc1cccc(/C=C2\C(=O)Nc3cccc(CCO)c32)n1` gave a half-maximal inhibitory concentration (IC50) in experiment [1] above 100 µM.
As for `Cc1[nH]c(CC2C(=O)Nc3ccc(Br)cc32)c(C)c1CCCN(C)C` (configuration not stated), in experiment [1], the IC50 was above 100 µM.
In the case of `COc1cccc(-c2ccc3c(c2)NC(=O)C3Cc2[nH]c(C)c(CCCN(C)C)c2C)c1` (configuration not stated), the 50% inhibitory concentration (IC50) in experiment [1] turned out to be 48.7 µM.
Take `Cc1[nH]c(/C=C2\C(=O)Nc3cccc(CCOc4cccc(C(C)C)c4)c32)c(C)c1CCCN(C)C`: the IC50 in experiment [1] is above 100 µM.
In the case of `Cc1[nH]c(CC2C(=O)Nc3ccccc32)c(C)c1CCCN(C)C` (configuration not stated), the IC50 in experiment [1] was above 100 µM; in experiment [2] it was above 50 µM.
Consider `COc1ccc(-c2ccc3c(c2)NC(=O)C3Cc2[nH]c(C)c(CCCN(C)C)c2C)cc1` (configuration not stated), for which the IC50 in experiment [1] was above 100 µM.
As to `O=C1Nc2cccc(CCO)c2/C1=C/c1ccccn1`, the concentration for half-maximal inhibition (IC50) was above 100 µM in experiment [1] and 3 µM in experiment [2].
Taken in the same sequence, the figures for `COc1ccc(CC2C(=O)Nc3cc(-c4ccccc4)ccc32)c(O)c1` (configuration not stated) were above 100 µM and above 50 µM.
As for `COc1ccc(/C=C2/C(=O)Nc3cc(-c4cccs4)ccc32)cc1-c1cccs1`, the IC50 in experiment [1] was above 100 µM.
Take `O=C1Nc2ccccc2C1Cc1ccc2[nH]ccc2c1` (configuration not stated): the values for the half-maximal inhibitory concentration (IC50) in experiment [1] and in experiment [2] were above 100 µM and above 50 µM, respectively.
In experiment [1], `COc1ccc(/C=C2/C(=O)Nc3cc(-c4ccsc4)ccc32)cc1-c1cccs1` had an IC50 above 100 µM.
Same read-out and setting: for `O=C1Nc2cccc(CCO)c2C1Cc1ccc(Br)cc1` (configuration not stated) the value was above 100 µM; for `O=C1Nc2cc(-c3ccsc3)ccc2/C1=C\c1ccccc1O`, above 100 µM.
On the same count and under the same terms, for `O=C1Cc2c(CCOC(=O)Nc3ccccc3)cccc2N1` the value was above 100 µM.
`COc1ccc(-c2cc(CC3C(=O)Nc4ccccc43)c(O)cc2OC)cc1` (configuration not stated) returned an IC50 in experiment [1] above 100 µM.
In the case of `COc1ccc2c(c1)NC(=O)C2Cc1ccc(OC)c(-c2ccsc2)c1` (configuration not stated), the IC50 in experiment [1] is above 100 µM.
Regarding `Cc1[nH]c(/C=C2\C(=O)Nc3cccc(CCO)c32)c(C)c1CCCN(C)C`, the values for the half-maximal inhibitory concentration (IC50) in experiment [1] and in experiment [2] were above 100 µM and 25.3 µM, respectively.
The molecule `CC(=O)Nc1ccc2c(c1)NC(=O)C2Cc1ccc(OCCN2CCOCC2)c(C2CCCCC2)c1` (configuration not stated) showed an IC50 in experiment [1] above 100 µM.
Same read-out and setting: the figure for `CCOCCc1cccc2c1CC(=O)N2` is above 100 µM; for `O=C1Nc2cccc(CCO)c2C1Cc1ccccc1` (configuration not stated) it is above 100 µM.
In experiment [1], `CC(C)(C)NC(=O)OCCc1cccc2c1CC(=O)N2` returned an IC50 above 100 µM.
The same measure, in the same setting: the figure for `CC(C)c1cccc(OCCc2cccc3c2CC(=O)N3)c1` is above 100 µM.
For the molecule `COc1c(C(C)C)cc(CC2C(=O)Nc3ccccc32)cc1C(C)C` (configuration not stated), the results for the IC50 in experiment [1] and in experiment [2] were above 100 µM and above 50 µM, respectively.
`O=C1Nc2cccc(CCO)c2/C1=C\c1ccc(Br)cc1`: the IC50 in experiment [1] is above 100 µM.
The same measure, in the same setting: the figure for `COc1ccc(/C=C2/C(=O)Nc3cc(-c4cccnc4)ccc32)cc1-c1cccs1` is above 100 µM; for `O=C1Cc2c(CCOC(=O)NS(=O)(=O)c3ccccc3)cccc2N1` it is above 100 µM.
As for `COc1ccc(/C(=C2/C(=O)Nc3ccccc32)c2[nH]c(C)cc2C)cc1`, the IC50 in experiment [2] was above 50 µM.
For `COc1cccc(-c2ccc3c(c2)NC(=O)C3Cc2ccccc2O)c1` (configuration not stated), the figures for the IC50 in experiment [1] and in experiment [2] were above 100 µM and above 50 µM, respectively.
Taken in the same sequence, the figures for `Cc1cccc(CC2C(=O)Nc3cccc(CCO)c32)n1` (configuration not stated) were above 100 µM and above 50 µM.
Taken in the same sequence, the figures for `O=C1Nc2cc(-c3ccccc3)ccc2C1Cc1cccc(F)c1O` (configuration not stated) were above 100 µM and above 50 µM.
With `Cc1ccc(O)c(/C=C2\C(=O)Nc3cccc(CCO)c32)n1`, the IC50 in experiment [1] was above 100 µM; in experiment [2], above 50 µM.
As to `Cc1[nH]c(/C=C2/C(=O)Nc3cc(-c4cccnc4)ccc32)c(C)c1CCCN(C)C`, the IC50 in experiment [1] is 12.1 µM.
On the same count and under the same terms, the figure for `Cc1[nH]c(/C=C2/C(=O)Nc3cc(-c4cccs4)ccc32)c(C)c1CCCN(C)C` is above 100 µM.
Consider `Cc1[nH]c(/C=C2\C(=O)Nc3cccc(CCOc4ccc(C(C)C)cc4)c32)c(C)c1CCC(=O)O`, for which the half-maximal inhibitory concentration (IC50) in experiment [1] was above 100 µM; in experiment [2], above 50 µM.
For `CC(C)c1cc(CC2C(=O)Nc3ccc(Cl)cc32)cc(C(C)C)c1OCCN1CCOCC1` (configuration not stated), the IC50 in experiment [1] is above 100 µM.
On the same count and under the same terms, the figure for `COc1ccc(/C=C2\C(=O)Nc3cccc(CCO)c32)cc1-c1cccs1` is above 100 µM; for `O=C1Nc2cc(-c3ccccc3)ccc2C1Cc1cc(Br)ccc1O` (configuration not stated) it is above 100 µM.
In experiment [1], `O=C1Nc2cc(-c3cccnc3)ccc2/C1=C\c1ccccc1O` came in with a 50% inhibitory concentration (IC50) above 100 µM.
Consider `COc1ccc(CC2C(=O)Nc3ccc(CCN4CCOCC4)cc32)cc1-c1ccsc1` (configuration not stated), for which the 50% inhibitory concentration (IC50) in experiment [1] was above 100 µM; in experiment [2], above 50 µM.
As to `O=C1Nc2ccc(F)cc2C1Cc1ccc(O)c(C2CCCC2)c1` (configuration not stated), the figures for the concentration for half-maximal inhibition (IC50) in experiment [1] and in experiment [2] were above 100 µM and above 50 µM, respectively.
Take `O=C1Cc2c(CCOc3cccc(-c4ccccc4)c3)cccc2N1`: the concentration for half-maximal inhibition (IC50) in experiment [1] was above 100 µM.
For `COc1ccc(CC2C(=O)Nc3ccc(F)cc32)cc1C1CCCC1` (configuration not stated), the concentration for half-maximal inhibition (IC50) in experiment [1] was above 100 µM.

What is called IC50 is the concentration at which inhibition is half-maximal. Low values mean greater potency in that assay, high ones weaker potency in that assay.
